In publication PMC7181660, “A novel specific PERK activator reduces toxicity and extends survival in Huntington's disease models” (Scientific Reports, 2020):

What was measured:
Experiment in all cases: biochemical
Type in all cases: biochemical
[1] = target: panel of 391 kinases (Homo sapiens, UniProt Q13043); details: MST1/STK4, MK-28 1 µM, ATP 1 µM
[2] = target: panel of 391 kinases (Homo sapiens, UniProt Q16584); details: MLK3/MAP3K11, MK-28 1 µM, ATP 1 µM
[3] = target: panel of 391 kinases (Homo sapiens, UniProt P53671); details: LIMK2, MK-28 1 µM, ATP 1 µM
[4] = target: panel of 391 kinases (Homo sapiens, UniProt Q15208); details: STK38/NDR1, MK-28 1 µM, ATP 1 µM
[5] = target: panel of 391 kinases (Homo sapiens, UniProt P42679); details: CTK/MATK, MK-28 1 µM, ATP 1 µM
[6] = target: panel of 391 kinases (Homo sapiens, UniProt P41743); details: PKCiota, MK-28 1 µM, ATP 1 µM
[7] = target: panel of 391 kinases (Homo sapiens, UniProt Q52WX2); details: SBK1, MK-28 1 µM, ATP 1 µM
[8] = target: panel of 391 kinases (Homo sapiens, UniProt P06241); details: FYN, MK-28 1 µM, ATP 1 µM
[9] = target: panel of 391 kinases (Homo sapiens, UniProt P51813); details: BMX/ETK, MK-28 1 µM, ATP 1 µM
[10] = target: panel of 391 kinases (Homo sapiens, UniProt Q86UE8); details: TLK2, MK-28 1 µM, ATP 1 µM
[11] = target: panel of 391 kinases (Homo sapiens, UniProt Q8N752); details: CK1a1L, MK-28 1 µM, ATP 1 µM
[12] = target: panel of 391 kinases (Homo sapiens, UniProt Q13627); details: DYRK1/DYRK1A, MK-28 1 µM, ATP 1 µM
[13] = target: T1, panel of 391 kinases (Homo sapiens, UniProt P10398); details: ARAF, MK-28 1 µM, ATP 1 µM
T1 sequence (P10398 1-606): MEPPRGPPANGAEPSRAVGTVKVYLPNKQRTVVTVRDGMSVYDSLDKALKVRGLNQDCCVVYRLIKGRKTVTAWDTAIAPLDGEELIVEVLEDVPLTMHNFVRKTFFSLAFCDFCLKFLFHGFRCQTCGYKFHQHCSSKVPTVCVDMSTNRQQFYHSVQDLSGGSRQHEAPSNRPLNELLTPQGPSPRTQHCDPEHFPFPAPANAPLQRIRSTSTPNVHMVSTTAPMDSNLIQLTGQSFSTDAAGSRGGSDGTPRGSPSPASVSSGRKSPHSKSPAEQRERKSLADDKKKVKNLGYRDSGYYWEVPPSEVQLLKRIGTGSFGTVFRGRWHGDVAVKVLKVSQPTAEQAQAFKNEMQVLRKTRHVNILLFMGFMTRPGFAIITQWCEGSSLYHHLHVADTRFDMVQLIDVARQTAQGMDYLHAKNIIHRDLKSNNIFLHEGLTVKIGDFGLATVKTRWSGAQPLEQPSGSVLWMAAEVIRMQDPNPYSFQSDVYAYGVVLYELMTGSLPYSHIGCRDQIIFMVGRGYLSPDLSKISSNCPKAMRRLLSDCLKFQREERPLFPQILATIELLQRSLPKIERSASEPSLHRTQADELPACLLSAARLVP

[14] = target: panel of 391 kinases (Homo sapiens, UniProt Q12851); details: GCK/MAP4K2, MK-28 1 µM, ATP 1 µM
[15] = target: panel of 391 kinases (Homo sapiens, UniProt Q9UK32); details: RSK4, MK-28 1 µM, ATP 1 µM
[16] = target: panel of 391 kinases (Homo sapiens, UniProt P51451); details: BLK, MK-28 1 µM, ATP 1 µM
[17] = target: panel of 391 kinases (Homo sapiens, UniProt P36894); details: ALK3/BMPR1A, MK-28 1 µM, ATP 1 µM
[18] = target: panel of 391 kinases (Homo sapiens, UniProt Q9NRM7); details: LATS2, MK-28 1 µM, ATP 1 µM
[19] = target: panel of 391 kinases (Homo sapiens, UniProt Q9UBE8); details: NLK, MK-28 1 µM, ATP 1 µM
[20] = target: panel of 391 kinases (Homo sapiens, UniProt Q5S007); details: LRRK2, MK-28 1 µM, ATP 1 µM
[21] = target: panel of 391 kinases (Homo sapiens, UniProt O75116); details: ROCK2, MK-28 1 µM, ATP 1 µM
[22] = target: panel of 391 kinases (Homo sapiens, UniProt P29317); details: EPHA2, MK-28 1 µM, ATP 1 µM
[23] = read-out: % Enzyme Activity (relative to DMSO controls)

Compound: CN(/N=C\c1ccc(O)c(O)c1)c1nc(-c2ccccc2)cc(-c2ccccc2)n1 [MK-28]
- % Enzyme Activity (relative to DMSO controls) [1]: 85.69%
- remaining activity at 1 µM [1, 23]: 93.7%
- % Enzyme Activity (relative to DMSO controls) [2]: 162.84%
- remaining activity at 1 µM [2, 23]: 168%
- % Enzyme Activity (relative to DMSO controls) [3]: 94.92%
- remaining activity at 1 µM [3, 23]: 95.4%
- % Enzyme Activity (relative to DMSO controls) [4]: 95.54%
- remaining activity at 1 µM [4, 23]: 96.8%
- % Enzyme Activity (relative to DMSO controls) [5]: 98.98%
- remaining activity at 1 µM [5, 23]: 101%
- % Enzyme Activity (relative to DMSO controls) [6]: 105.00%
- remaining activity at 1 µM [6, 23]: 105%
- % Enzyme Activity (relative to DMSO controls) [7]: 97.75%
- remaining activity at 1 µM [7, 23]: 97.8%
- % Enzyme Activity (relative to DMSO controls) [8]: 103.36%
- remaining activity at 1 µM [8, 23]: 103%
- % Enzyme Activity (relative to DMSO controls) [9]: 100.53%
- remaining activity at 1 µM [9, 23]: 102%
- % Enzyme Activity (relative to DMSO controls) [10]: 101.04%
- remaining activity at 1 µM [10, 23]: 102%
- % Enzyme Activity (relative to DMSO controls) [11]: 99.36%
- remaining activity at 1 µM [11, 23]: 100%
- % Enzyme Activity (relative to DMSO controls) [12]: 102.59%
- remaining activity at 1 µM [12, 23]: 103%
- % Enzyme Activity (relative to DMSO controls) [13]: 93.30%
- remaining activity at 1 µM [13, 23]: 96.2%
- % Enzyme Activity (relative to DMSO controls) [14]: 97.18%
- remaining activity at 1 µM [14, 23]: 97.2%
- % Enzyme Activity (relative to DMSO controls) [15]: 101.39%
- remaining activity at 1 µM [15, 23]: 102%
- % Enzyme Activity (relative to DMSO controls) [16]: 82.35%
- remaining activity at 1 µM [16, 23]: 85.3%
- % Enzyme Activity (relative to DMSO controls) [17]: 98.85%
- remaining activity at 1 µM [17, 23]: 106%
- % Enzyme Activity (relative to DMSO controls) [18]: 84.83%
- remaining activity at 1 µM [18, 23]: 88.2%
- % Enzyme Activity (relative to DMSO controls) [19]: 99.19%
- remaining activity at 1 µM [19, 23]: 105%
- % Enzyme Activity (relative to DMSO controls) [20]: 90.69%
- remaining activity at 1 µM [20, 23]: 92.2%
- % Enzyme Activity (relative to DMSO controls) [21]: 90.11%
- remaining activity at 1 µM [21, 23]: 90.5%
- % Enzyme Activity (relative to DMSO controls) [22]: 99.61%
- remaining activity at 1 µM [22, 23]: 100%
